Laboratory results taken from patent US11932604B1, “9-(2-hydroxyphenyl)-10-[3-(dimethylamino)propyl]- 3,4,6,7,9,10-hexahydroacridine-1,8(2H,5H)-dione as an antimicrobial compound” (KING FAISAL UNIVERSITY, priority 2023, dated 2024).

Columns and labels:
Settings in all cases: after 10, 20, 40 and 60 minutes at all dilutions 1:100 to 1:800
Candida albicans = assay: Antimicrobial activity by agar dilution, Candida albicans; type: cell-based
Procedure: (§1) The antimicrobial properties of the synthesized compound 9-(2-hydroxyphenyl)-10-[3-(dimethylamino)propyl]-3,4,6,7,9,10-hexahydroacridine-1,8(2H,5H)-dione were studied by the method of agar dilution. Test solutions of each compound were prepared in a concentration of 1% using dimethylformamide as a solvent. Then they were diluted in a physiological solution to obtain the final experimental dilutions 1:100, 1:200, 1:400, and 1:800. The effect of these substances were compared with furacillin in a controllable study. The testing microbes used were gram positive bacteria St. Aereus, gram negative bacteria E. Coli and Ps. Aeruginosa, and Candida albicans fungi. The experiments used for this survey were meat-pentonlu agar (EPA) for cultivation of bacteria and Saburo environment for fungi. Each experiment used 1 ml of test solution on each plate 500 min. Add 2 drops of emulsified with microbes feel. All experimental samples were taken from the agar after 10, 20, 40, 60 minutes in the environment on the basis of Patrk planted. Bacteria were cultivated at a temperature of 37° C. for 1 day and the mushroom was kept in a thermostat for […] at a temperature of 28° C. Then the results were checked.

E. Coli = assay: Antimicrobial activity by agar dilution, E. Coli; type: cell-based, Escherichia coli
Procedure: as §1

Ps. Aeruginosa = assay: Antimicrobial activity by agar dilution, Ps. Aeruginosa; type: cell-based, Pseudomonas aeruginosa
Procedure: as §1

St. Aereus = assay: Antimicrobial activity by agar dilution, St. Aereus; type: cell-based, Staphylococcus aureus
Procedure: as §1

CN(C)CCCN1C2=C(C(=O)CCC2)C(c2ccccc2O)C2=C1CCCC2=O [9-(2-hydroxyphenyl)-10-[3-(dimethylamino)propyl]-3,4,6,7,9,10-hexahydroacridine-1,8(2H,5H)-dione]
highest inhibition activity: inhibition activity, Candida albicans (Candida albicans) | inhibition activity, E. Coli (E. Coli) | inhibition activity, Ps. Aeruginosa (Ps. Aeruginosa) | inhibition activity, St. Aereus (St. Aereus)
